Test results reported in US12414958B2, “Medicament and use thereof for treating bacterial infections involving biofilm” (Debiopharm International S.A., priority 2019, dated 2025).

Columns and labels:
[1] = tested on: MRSA 43300; assay: MIC of Debio 1452; format: cell-based; settings: Staphylococcus aureus
[2] = tested on: ATCC 43300 MRSA strain; assay: Induction of resistance studies, ex vivo bacterial exposure to 4×MIC (Example 1); format: cell-based, Staphylococcus aureus; settings: ex vivo exposure to 4×MIC; single and combination therapy; 24h or 72h biofilm
Procedure: Two experimental settings were used in this study to evaluate the treatment efficacies against early (24h) and/or mature (72h) MRSA catheter formed biofilms. Briefly, mice were anaesthetised by an IP injection of about 120 μl a mix of ketamine (50 mg/kg) and xylazine (10 mg/kg) (4 mL ketamine+2 mL xylazine+10 mL saline). Flank on the right side was shaved and then disinfected by 3 consecutive applications of betadine. A cutaneous and then subcutaneous (SC) incisions of 0.2 cm were made under sterile conditions and a 1 cm segment of polyurethane catheter (Ref. No. ES-04730 Arrow international) cut into 2 longitudinal fragments was inserted SC (into the incision and then pushed further under the skin, about 2 cm away from the incision). The inoculation was done simultaneously by placing 50 μl of the bacterial culture onto the catheter (10^6 CFU of ATCC 43300 MRSA strain). The incision was stitched up and disinfected. The day of the infection was referred to as Day0 (D0). To ensure that the study was conducted in sterile conditions from the start to the end of the experiment, non-infected mice (sentinel group) were included. […] In both 24 h and 72h biofilm settings, two groups of infected non-treated animals (Vehicle controls) were evaluated for bacterial counts: at baseline (24h or D1 [for 24-h biofilm] and 72h or D3 [for 72-h biofilm] post infection, i.e. time points corresponding to treatments initiations) and at the termination of treatment duration (D6 [for 24-h biofilm] and D8 [for 72-h biofilm] post infection). Post treatment CFUs were counted on D6 or D8 and results were expressed as Log10 CFU/g of catheter (Mean±SEM). The limit of detection was determined as being 1 Log10 CFU/g of catheter. Changes of CFU/g of catheter (Δ Log10) from the baseline (D1 or D3 for 24-h and 72-h biofilm, respectively) and cure rates (corresponding to the percentage of mice without catheter-associated bacteria within a given treatment group) were also calculated. In vivo induction of antibiotic-resistant bacteria was analysed for all tested antibiotics.

[3] = tested on: ATCC 43300 MRSA strain; assay: In vivo murine model of catheter associated infection, 24 h and 72 h MRSA biofilms; set-up: species or system Staphylococcus aureus; settings: for CR (%) cure rate: 5.5-day treatment, percentage of mice without catheter-associated bacteria
Procedure: Two experimental settings were used in this study to evaluate the treatment efficacies against early (24h) and/or mature (72h) MRSA catheter formed biofilms. Briefly, mice were anaesthetised by an IP injection of about 120 μl a mix of ketamine (50 mg/kg) and xylazine (10 mg/kg) (4 mL ketamine+2 mL xylazine+10 mL saline). Flank on the right side was shaved and then disinfected by 3 consecutive applications of betadine. A cutaneous and then subcutaneous (SC) incisions of 0.2 cm were made under sterile conditions and a 1 cm segment of polyurethane catheter (Ref. No. ES-04730 Arrow international) cut into 2 longitudinal fragments was inserted SC (into the incision and then pushed further under the skin, about 2 cm away from the incision). The inoculation was done simultaneously by placing 50 μl of the bacterial culture onto the catheter (10^6 CFU of ATCC 43300 MRSA strain). The incision was stitched up and disinfected. The day of the infection was referred to as Day0 (D0). To ensure that the study was conducted in sterile conditions from the start to the end of the experiment, non-infected mice (sentinel group) were included. Treatments started either on D1 or D3 post infection, corresponding to early (24h) or more mature (72h) catheter formed biofilms, respectively, and lasted for 5.5 days (D1-D6) or (D3-D8). In both 24 h and 72h biofilm settings, two groups of infected non-treated animals (Vehicle controls) were evaluated for bacterial counts: at baseline (24h or D1 [for 24-h biofilm] and 72h or D3 [for 72-h biofilm] post infection, i.e. time points corresponding to treatments initiations) and at the termination of treatment duration (D6 [for 24-h biofilm] and D8 [for 72-h biofilm] post infection). Post treatment CFUs were counted on D6 or D8 and results were expressed as Log10 CFU/g of catheter (Mean±SEM). The limit of detection was determined as being 1 Log10 CFU/g of catheter. Changes of CFU/g of catheter (Δ Log10) from the baseline (D1 or D3 for 24-h and 72-h biofilm, respectively) and cure rates (corresponding to the percentage of mice without catheter-associated bacteria within a given treatment group) were also calculated. In vivo induction of antibiotic-resistant bacteria was analysed for all tested antibiotics.
Antibiotics doses were selected according to the effective doses in animals, which approximated the therapeutic human equivalent doses (HED) (Table 1).
Mice received antibiotics on D1, D2, D3, D4, D5 and D6 (only one administration at D6) or D3, D4, D5, D6, D7 and D8 (only one administration at D8). All antibiotics were administered BID IP, except Debio 1450 BES and Vancomycin, which were respectively given PO and SC. Daptomycin was tested as a once daily regimen to avoid tolerability issues. The antibiotics daily dosing was performed with a 10-12 hours interval between the two administrations. For combination therapy, antibiotics were administered simultaneously every 10-12 hours (the time required between the injection of the first antibiotic and the injection of the second antibiotic was less than 30 seconds per mouse).
In each sub-study, animals were randomly assigned to the antibiotic therapies or vehicle controls groups. Dose volumes were calculated according to individual body weight of each animal.
After blood collection, animals were sacrificed by cervical dislocation following anaesthesia. Two fragments of catheter per mouse were collected and were used for bacterial enumeration after sonication. Each fragment of catheter was individually washed under aseptic conditions in an Eppendorf tube (3 successive washing steps with 300 μl sterile saline). After the last wash, the catheter was suspended in 1 mL sterile saline, put in an ultrasonic bath (Advantage Lab) for 3 minutes at room temperature before being vigorously vortexed in order to detach all adherent bacteria from the catheter. Several successive dilutions of this suspension (undiluted, 10-2, […]) were cultured onto Chapman agar plates for 48 h at 37° C. […]

Compound | MIC ([1]; determined in-house) | MIC ([1]; historical data from the Sponsor) | emergence of resistant mutants [2] | Log10 CFU/g of catheter (D 6) Mean ± SEM ([3]; Biofilm (24 h), 5.5-day treatment (D1-D6), BALB/c mice, doses as in Table 2) | ΔLog10 CFU/g of catheter from (D 1) Mean ± SEM ([3]; Biofilm (24 h), 5.5-day treatment (D1-D6), change from baseline D 1, BALB/c mice) | CR (%) cure rate ([3]; Biofilm (24 h)) | Log10 CFU/g of catheter (D 8) Mean ± SEM ([3]; Biofilm (72 h), 5.5-day treatment (D3-D8), BALB/c mice, doses as in Table 2) | ΔLog10 CFU/g of catheter from (D 3) Mean ± SEM ([3]; Biofilm (72 h), 5.5-day treatment (D3-D8), change from baseline D 3, BALB/c mice) | CR (%) cure rate ([3]; Biofilm (72 h))
Cc1c(CN(C)C(=O)/C=C/c2cnc3c(c2)CCC(=O)N3)oc2ccccc12 [Debio 1452, (E)-N-methyl-N-((3-methylbenzofuran-2-yl)methyl)-3-(7-oxo-5,6,7,8-tetrahydro-1,8-naphthyridin-3-yl) acrylamide] | 0.0625 µg/mL | 0.008 µg/mL | no emergence of resistant mutants |  |  |  |  |  | 
CN[C@H](CC(C)C)C(=O)N[C@H]1C(=O)N[C@@H](CC(N)=O)C(=O)N[C@H]2C(=O)N[C@H]3C(=O)N[C@H](C(=O)N[C@H](C(=O)O)c4cc(O)cc(O)c4-c4cc3ccc4O)[C@H](O)c3ccc(c(Cl)c3)Oc3cc2cc(c3O[C@@H]2O[C@H](CO)[C@@H](O)[C@H](O)[C@H]2O[C@H]2C[C@](C)(N)[C@H](O)[C@H](C)O2)Oc2ccc(cc2Cl)[C@H]1O [Vancomycin] |  |  | no emergence of resistant mutants | 5.08 ± 0.105 Log10 CFU/g of catheter | −1.59 ± 0.105 Log10 CFU/g of catheter | 0% | 4.84 ± 0.077 Log10 CFU/g of catheter | −1.94 ± 0.077 Log10 CFU/g of catheter | 0%
